The source of these data is patent US20160083357A1, “NOVEL TETRAZOLONE DERIVATIVES” (Hoffmann-La Roche Inc., priority 2013, published 2016).

Read-outs that look alike come from different tables or passages of the source.

One assay addresses T1, human CB1 receptors (Homo sapiens, UniProt P21554).
T1 construct: expressed in transfected cells; host or cells: CHO cells
Briefly: cAMP assay, human CB1. Format: cell-based. The method in brief:
(§1)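 CHO cells expressing human CB1 or CB2, preincubated in Krebs Ringer bicarbonate with 1 mM IBMX, then compound for 30 min at 30° C. cAMP quantified by time-resolved FRET (cAMP-Nano-TRF) against a cAMP standard curve; EC50 values derived.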

In the next assay the target is T2, human CB2 receptors (Homo sapiens, UniProt P34972).
T2 construct: expressed in transfected cells; host or cells: CHO cells
Briefly: cAMP assay, human CB2. Format: cell-based. The gist of the method: as §1

The mark [1] stands for this setting: functional cAMP assay, CHO cells expressing human CB1, read-out: Ec50: CB1 - hu cAMP.
[2] abbreviates: functional cAMP assay, CHO cells expressing human CB2, read-out: Ec50: CB2 - hu cAMP.

T1 sequence (P21554 whole entry): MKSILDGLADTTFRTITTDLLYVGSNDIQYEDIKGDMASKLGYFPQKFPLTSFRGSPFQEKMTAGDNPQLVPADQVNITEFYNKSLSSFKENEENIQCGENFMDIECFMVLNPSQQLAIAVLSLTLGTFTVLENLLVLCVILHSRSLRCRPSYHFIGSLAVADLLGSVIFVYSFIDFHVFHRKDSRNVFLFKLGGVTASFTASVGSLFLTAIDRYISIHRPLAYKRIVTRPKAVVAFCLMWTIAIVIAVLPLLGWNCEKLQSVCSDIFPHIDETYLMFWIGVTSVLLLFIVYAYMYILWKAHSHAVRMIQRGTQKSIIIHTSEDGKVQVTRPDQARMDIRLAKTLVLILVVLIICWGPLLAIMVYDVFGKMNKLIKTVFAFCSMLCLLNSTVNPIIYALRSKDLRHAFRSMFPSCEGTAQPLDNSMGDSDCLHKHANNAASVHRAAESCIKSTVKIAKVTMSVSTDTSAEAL
T2 sequence (P34972 whole entry): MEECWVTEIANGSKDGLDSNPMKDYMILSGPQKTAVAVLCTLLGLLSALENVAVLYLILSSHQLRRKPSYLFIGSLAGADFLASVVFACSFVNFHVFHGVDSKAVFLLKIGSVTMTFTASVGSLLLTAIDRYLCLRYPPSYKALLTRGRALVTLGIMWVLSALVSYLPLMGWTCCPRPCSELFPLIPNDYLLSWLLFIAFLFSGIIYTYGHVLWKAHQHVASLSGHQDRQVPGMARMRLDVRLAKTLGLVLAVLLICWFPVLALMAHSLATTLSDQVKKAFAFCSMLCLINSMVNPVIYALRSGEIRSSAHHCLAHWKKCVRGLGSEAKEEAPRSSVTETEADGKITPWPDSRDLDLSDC

Take `COCCNC(=O)n1nnn(-c2cccc(F)c2)c1=O` [Example 110, 4-(3-Fluoro-phenyl)-5-oxo-4,5-dihydro-tetrazole-1-carboxylic acid (2-methoxy-ethyl)-amide]: the half-maximal effective concentration (EC50) at human CB1 receptors (setting [1]) was > 10 µM; on human CB2 receptors (setting [2]), 0.968 µM.

Regarding `CCOCCN(C)C(=O)n1nnn(-c2cccc(Cl)c2)c1=O` [Example 111, 4-(3-Chloro-phenyl)-5-oxo-4,5-dihydro-tetrazole-1-carboxylic acid (2-ethoxy-ethyl)-methyl-amide], the values for the 50% effective concentration (EC50) on human CB1 receptors (setting [1]) and at human CB2 receptors (setting [2]) were > 10 µM and 0.0015 µM, respectively.

Regarding `CCOCCN(C)C(=O)n1nnn(-c2cccc(OC(F)(F)F)c2)c1=O` [Example 112, 5-Oxo-4-(3-trifluoromethoxy-phenyl)-4,5-dihydro-tetrazole-1-carboxylic acid (2-ethoxy-ethyl)-methyl-amide], the half-maximal effective concentration (EC50) is > 10 µM on human CB1 receptors and 0.0041 µM at human CB2 receptors.

Turning to `CCOCCN(C)C(=O)n1nnn(-c2ccc(Cl)cc2)c1=O` [Example 113, 4-(4-Chloro-phenyl)-5-oxo-4,5-dihydro-tetrazole-1-carboxylic acid (2-ethoxy-ethyl)-methyl-amide], the figures for the EC50 at human CB1 receptors (setting [1]) and at human CB2 receptors (setting [2]) were > 10 µM and 0.0014 µM, respectively.

With `CCOC(=O)Cn1nnn(-c2cccc(Cl)c2)c1=O` [Example 114, [4-(3-Chloro-phenyl)-5-oxo-4,5-dihydro-tetrazol-1-yl]-acetic acid ethyl ester], the values for the 50% effective concentration (EC50) at human CB1 receptors (setting [1]) and at human CB2 receptors (setting [2]) were > 10 µM and 1.99 µM, respectively.

As for `O=C(Cn1nnn(-c2cccc(Cl)c2)c1=O)N1CCOCC1` [Example 115, 1-(3-Chloro-phenyl)-4-(2-morpholin-4-yl-2-oxo-ethyl)-1,4-dihydro-tetrazol-5-one], the results for the EC50 at human CB1 receptors (setting [1]) and at human CB2 receptors (setting [2]) were > 10 µM and 2.02 µM, respectively.

Consider `CC(C(=O)N1CCCC1)N1CCN(C(=O)n2nnn(-c3cccc(Cl)c3)c2=O)CC1` (stereo not shown) [Example 116, 1-(3-Chloro-phenyl)-4-[4-(1-methyl-2-oxo-2-pyrrolidin-1-yl-ethyl)-piperazine-1-carbonyl]-1,4-dihydro-tetrazol-5-one], for which the EC50 is > 10 µM on human CB1 receptors (setting [1]) and 0.122 µM on human CB2 receptors (setting [2]).

For the compound `CC(C(=O)N1CCCC1)N1CCN(C(=O)n2nnn(-c3cccc(OC(F)(F)F)c3)c2=O)CC1` (stereo not shown) [Example 117, 1-[4-(1-Methyl-2-oxo-2-pyrrolidin-1-yl-ethyl)-piperazine-1-carbonyl]-4-(3-trifluoromethoxy-phenyl)-1,4-dihydro-tetrazol-5-one], the concentration giving a half-maximal response (EC50) on human CB1 receptors (setting [1]) is > 10 µM; on human CB2 receptors (setting [2]), 0.106 µM.

For `CC(C(=O)N1CCCC1)N1CCN(C(=O)n2nnn(-c3ccc(Cl)cc3)c2=O)CC1` (stereo not shown) [Example 118, 1-(4-Chloro-phenyl)-4-[4-(1-methyl-2-oxo-2-pyrrolidin-1-yl-ethyl)-piperazine-1-carbonyl]-1,4-dihydro-tetrazol-5-one], the EC50 was > 10 µM on human CB1 receptors (setting [1]) and 0.114 µM at human CB2 receptors (setting [2]).

Turning to `O=C(N1CCOCC1)n1nnn(-c2ccccc2C(F)(F)F)c1=O` [Example 119, 1-(morpholine-4-carbonyl)-4-[2-(trifluoromethyl)phenyl]tetrazol-5-one], the concentration giving a half-maximal response (EC50) on human CB1 receptors (setting [1]) is > 10 µM; on human CB2 receptors (setting [2]), 0.386 µM.

For the compound `O=C(N1CCOCC1)n1nnn(-c2cccc(C(F)(F)F)c2)c1=O` [Example 120, 1-(morpholine-4-carbonyl)-4-[3-(trifluoromethyl)phenyl]tetrazol-5-one], the half-maximal effective concentration (EC50) on human CB1 receptors (setting [1]) was > 10 µM; at human CB2 receptors (setting [2]), 0.0092 µM.

As to `O=C(N1CCOCC1)n1nnn(-c2ccc(C(F)(F)F)cc2)c1=O` [Example 121, 1-(morpholine-4-carbonyl)-4-[4-(trifluoromethyl)phenyl]tetrazol-5-one], the EC50 is > 10 µM on human CB1 receptors (setting [1]) and 0.016 µM on human CB2 receptors (setting [2]).

With `O=C(N1CCOCC1)n1nnn(-c2c(F)cccc2F)c1=O` [Example 122, 1-(2,6-difluorophenyl)-4-(morpholine-4-carbonyl)tetrazol-5-one], the EC50 on human CB1 receptors is > 10 µM; on human CB2 receptors it was 0.019 µM.

Consider `O=C(N1CCOCC1)n1nnn(-c2ccc(F)cc2F)c1=O` [Example 123, 1-(2,4-difluorophenyl)-4-(morpholine-4-carbonyl)tetrazol-5-one], for which the values for the concentration for a half-maximal effect (EC50) on human CB1 receptors (setting [1]) and at human CB2 receptors (setting [2]) were > 10 µM and 0.012 µM, respectively.

Regarding `O=C(N1CCOCC1)n1nnn(-c2cc(F)ccc2F)c1=O` [Example 124, 1-(2,5-difluorophenyl)-4-(morpholine-4-carbonyl)tetrazol-5-one], the concentration for a half-maximal effect (EC50) on human CB1 receptors (setting [1]) is > 10 µM; at human CB2 receptors (setting [2]) it was 0.019 µM.

Regarding `O=C(N1CCOCC1)n1nnn(-c2ccc(F)c(F)c2)c1=O` [Example 125, 1-(3,4-difluorophenyl)-4-(morpholine-4-carbonyl)tetrazol-5-one], the concentration giving a half-maximal response (EC50) was > 10 µM at human CB1 receptors (setting [1]) and 0.007 µM on human CB2 receptors (setting [2]).

`O=C(N1CCOCC1)n1nnn(-c2cc(F)cc(F)c2)c1=O` [Example 126, 1-(3,5-difluorophenyl)-4-(morpholine-4-carbonyl)tetrazol-5-one]: the EC50 at human CB1 receptors (setting [1]) is > 10 µM; on human CB2 receptors (setting [2]), 0.013 µM.

Consider `Cc1cccc(-n2nnn(C(=O)N3CCOCC3)c2=O)c1` [Example 127, 1-(3-methylphenyl)-4-(morpholine-4-carbonyl)tetrazol-5-one], for which the values for the EC50 on human CB1 receptors (setting [1]) and at human CB2 receptors (setting [2]) were > 10 µM and 0.0084 µM, respectively.

Take `Cc1ccc(-n2nnn(C(=O)N3CCOCC3)c2=O)cc1` [Example 128, 1-(4-methylphenyl)-4-(morpholine-4-carbonyl)tetrazol-5-one]: the EC50 on human CB1 receptors (setting [1]) is > 10 µM; at human CB2 receptors (setting [2]) it was 0.0066 µM.

`COc1cccc(-n2nnn(C(=O)N3CCOCC3)c2=O)c1` [Example 129, 1-(3-methoxyphenyl)-4-(morpholine-4-carbonyl)tetrazol-5-one]: the figures for the EC50 at human CB1 receptors (setting [1]) and at human CB2 receptors (setting [2]) were > 10 µM and 0.0091 µM, respectively.

For the compound `COc1ccc(-n2nnn(C(=O)N3CCOCC3)c2=O)cc1` [Example 130, 1-(4-methoxyphenyl)-4-(morpholine-4-carbonyl)tetrazol-5-one], the EC50 was > 10 µM on human CB1 receptors (setting [1]) and 0.0067 µM on human CB2 receptors (setting [2]).

As for `O=C(N1CCOCC1)n1nnn(-c2cccc(Cl)c2Cl)c1=O` [Example 131, 1-(2,3-dichlorophenyl)-4-(morpholine-4-carbonyl)tetrazol-5-one], the EC50 at human CB1 receptors (setting [1]) is > 10 µM; at human CB2 receptors (setting [2]), 0.016 µM.

Take `Cn1ccc2c(-n3nnn(C(=O)N4CCOCC4)c3=O)cccc21` [Example 132, 1-(1-methylindol-4-yl)-4-(morpholine-4-carbonyl)tetrazol-5-one]: the results for the half-maximal effective concentration (EC50) at human CB1 receptors (setting [1]) and on human CB2 receptors (setting [2]) were > 10 µM and 0.0076 µM, respectively.

For `Cn1ccc2cc(-n3nnn(C(=O)N4CCOCC4)c3=O)ccc21` [Example 133, 1-(1-methylindol-5-yl)-4-(morpholine-4-carbonyl)tetrazol-5-one], the concentration for a half-maximal effect (EC50) on human CB1 receptors (setting [1]) is > 10 µM; on human CB2 receptors (setting [2]) it was 0.018 µM.

Take `Cn1ccc2ccc(-n3nnn(C(=O)N4CCOCC4)c3=O)cc21` [Example 134, 1-(1-methylindol-6-yl)-4-(morpholine-4-carbonyl)tetrazol-5-one]: the EC50 at human CB1 receptors (setting [1]) was > 10 µM; at human CB2 receptors (setting [2]) it was 0.008 µM.

Regarding `O=C(N1CCOCC1)n1nnn(-c2cccc(Br)c2)c1=O` [Example 135, 1-(3-bromophenyl)-4-(morpholine-4-carbonyl)tetrazol-5-one], the half-maximal effective concentration (EC50) at human CB1 receptors (setting [1]) was > 10 µM; at human CB2 receptors (setting [2]) it was 0.007 µM.

Regarding `C[C@@H]1CN(C(=O)n2nnn(-c3cccc(Cl)c3)c2=O)C[C@H](C)O1` [Example 136, 1-(3-chlorophenyl)-4-[(2R,6S)-2,6-dimethylmorpholine-4-carbonyl]tetrazol-5-one], the EC50 at human CB1 receptors (setting [1]) is > 10 µM; on human CB2 receptors (setting [2]), 0.507 µM.

`CC1CN(C(=O)n2nnn(-c3cccc(Cl)c3)c2=O)CC(C)O1` (stereo not shown) [Example 137, 1-(3-chlorophenyl)-4-(2,6-dimethylmorpholine-4-carbonyl)tetrazol-5-one]: the EC50 at human CB1 receptors (setting [1]) was > 10 µM; on human CB2 receptors (setting [2]), 0.13 µM.

For `CC1(C)CCN(C(=O)n2nnn(-c3cccc(Cl)c3)c2=O)C1` [Example 138, 1-(3-chlorophenyl)-4-(3,3-dimethylpyrrolidine-1-carbonyl)tetrazol-5-one], the results for the EC50 at human CB1 receptors (setting [1]) and on human CB2 receptors (setting [2]) were > 10 µM and 0.005 µM, respectively.
